Structures are written as SMILES. Activity calls are given as the source filed them. The rule behind the calls is not given here.

Our source for the IC50, Activity and MIC values is ChEMBL document CHEMBL4613260, “NF-κB Inhibitory and Antibacterial Helvolic and Fumagillin Derivatives from Aspergillus terreus” (J Nat Prod, 2020).

Data set [1] is described as follows: Inhibition of TNFalpha-induced NFkappaB activation in human HEK293 cells after 6 hrs by luciferase assay. The class given is cell-based. As to conditions: HEK293, 6 h.
The test system of a further data set is A2780. The data set is described as follows: Antiproliferative activity against human A2780 cells at 40 uM after 72 hrs by Cyquant assay. The class given is functional, cell-based.
The subject of a further data set is HEK293. The data set is described as follows: Cytotoxicity against HEK293 cells at 50 uM by SRB assay. The format is cell-based. As to conditions: human, hek293, 50 µM. On the technique in general: Sulforhodamine B stains cellular protein and so reports cell mass.
The subject of data set [2] is Staphylococcus aureus. The data set is described as follows: Antibacterial activity against Staphylococcus aureus ATCC 43300 after 24 hrs by resazurin dye based broth microdilution method. The format is functional. As to conditions: ATCC 43300, 24 h. For orientation: The colour change of resazurin is a common sign of viable cells or microbes.
In data set [3] the test system is Escherichia coli. The data set is described as follows: Antibacterial activity against Escherichia coli ATCC 9637 after 24 hrs by resazurin dye based broth microdilution method. The class given is functional. As to conditions: W ATCC 9637, 24 h.
Data set [4] has as its system Escherichia coli. The data set is described as follows: Antibacterial activity against Escherichia coli ATCC 9637 at 50 ug/ml after 24 hrs by resazurin dye based broth microdilution method. The class given is functional, organism-based. As to conditions: W ATCC 9637.
Data set [5] concerns Staphylococcus aureus. The data set is described as follows: Antibacterial activity against Staphylococcus aureus ATCC 43300 at 50 ug/ml after 24 hrs by resazurin dye based broth microdilution method. The format is functional, organism-based.

One may read the IC50 as the concentration at which inhibition is half-maximal. A high value points to weaker potency. As a reminder, the MIC is the least concentration at which growth counts as inhibited. Turning to `CC(=O)O[C@H]1C[C@@]2(C)[C@@H](CC[C@H]3[C@@]4(C)C=CC(=O)[C@@H](C)[C@@H]4[C@H](OC(C)=O)C(=O)[C@@]32C)/C1=C(\CCC=C(C)C)C(=O)O` [HELVOLIC ACID], the IC50 in data set [1] is 2.7 µM. Also, the result in the data set with A2780 was inactive. Further, the Activity result in the data set with HEK293 is “Non-Toxic”. The MIC came to 12.5 µg/mL with Staphylococcus aureus [2] and 3.12 µg/mL with Escherichia coli [3].
As for `CC(=O)O[C@H]1C[C@@]2(C)[C@@H](CC[C@H]3[C@@]4(C)CCC(=O)[C@@H](C)[C@@H]4CC[C@@]32C)/C1=C(\CCC=C(C)C)C(=O)O`, the outcome in the data set with A2780 was inactive. Also, the Activity result with HEK293 is “Non-Toxic”. Besides, the MIC in the data set with Staphylococcus aureus [2] came out at 6.25 µg/mL; against Escherichia coli [3], 25 µg/mL.
Take `Cc1ccc(S(=O)(=O)N[C@@H](Cc2ccccc2)C(=O)CCl)cc1` [TPCK]: the IC50 in data set [1] was determined as 5.3 µM.
As to `CC(=O)O[C@H]1C[C@@]2(C)[C@@H](CC[C@H]3[C@@]4(C)CCC(=O)[C@@H](C)[C@@H]4[C@H](O)C(=O)[C@@]32C)/C1=C(\CCC=C(C)C)C(=O)O`, the outcome with A2780 was inactive. The Activity entry with HEK293 was “Non-Toxic”. Further, the results for the MIC in the data set with Staphylococcus aureus [2] and in the data set with Escherichia coli [3] were 12.5 µg/mL and 25 µg/mL, respectively.
Take `CO[C@@H]1[C@H](OC(=O)/C=C/C=C/C=C/C=C/C(=O)O)CC[C@]2(CO2)[C@H]1[C@@]1(C)O[C@@H]1CC=C(C)C` [FUMAGILLIN]: the result in the data set with A2780, with Escherichia coli [4] and in the data set with Staphylococcus aureus [5] was inactive. In the data set with HEK293, the Activity result is listed as “Non-Toxic”.
With `CO[C@@H]1[C@H](OC(=O)/C=C/C=C/C=C/C(=O)O)CC[C@]2(O)CO[C@](C)([C@H](O)CC=C(C)C)[C@@H]12`, the result in the data set with A2780, in the data set with Escherichia coli [4] and in the data set on Staphylococcus aureus [5] was inactive. For the same compound, the Activity entry in the data set with HEK293 is on record as “Non-Toxic”.
As for `Cc1ccc(S(=O)(=O)/C=C/C#N)cc1`, in data set [1], the IC50 was 11 µM.
For the compound `CC(=O)O[C@H]1C[C@@]2(C)[C@@H](CC[C@H]3[C@@]4(C)CCC(=O)[C@@H](C)[C@@H]4C[C@@H](O)[C@@]32C)/C1=C(\CCC=C(C)C)C(=O)O`, in the data set with A2780, the outcome was inactive. Also, the Activity entry in the data set on HEK293 is listed as “Non-Toxic”. Moreover, the values for the MIC in the data set on Staphylococcus aureus [2] and in the data set with Escherichia coli [3] were 6.25 µg/mL and 25 µg/mL, respectively.
As to `CC(=O)O[C@H]1C[C@@]2(C)[C@@H](CC[C@H]3[C@@]4(C)CCC(=O)[C@@H](C)[C@@H]4[C@H](OC(C)=O)C(=O)[C@@]32C)/C1=C(\CCC=C(C)C)C(=O)O`, the half-maximal inhibitory concentration (IC50) in data set [1] is 6.5 µM. The outcome in the data set with A2780 was inactive. The Activity entry with HEK293 was “Non-Toxic”. Moreover, the figures for the MIC in the data set with Staphylococcus aureus [2] and in the data set on Escherichia coli [3] were 50 µg/mL and 25 µg/mL, respectively.
On to `O=C(N[C@H](CO)[C@H](O)c1ccc([N+](=O)[O-])cc1)C(Cl)Cl` [CHLORAMPHENICOL], for which the MIC was found to be 19.4 µM with Staphylococcus aureus [2] and 9.66 µM against Escherichia coli [3].
